Measurements published in patent US11542508B2, “Isolated polynucleotides and polypeptides and methods of using same for expressing an expression product of interest” (priority 2016, dated 2023).

Columns and labels:
phi3T = test: Sequencing-based assay for lysogeny; format: cell-based, B. subtilis 168; details: 60 minutes post infection, phi3T MOI=2, peptide 1 μM; 18% (±3.3%) without peptide
Experimental: An overnight culture of bacteria was diluted 1/100 until reaching O.D 600 nm=0.1. Medium was replaced as described above [LB supplemented with 0.1 mM MnCl2 and 5 mM MgCl2 with or without SAIRGA (SEQ ID NO: 269)], and incubated for 1 hour at room temperature. Bacteria were infected by phi3T at multiplicity of infection (MOI)=2. Cell pellets were collected at 5, 10, 20 and 60 minutes post infection in the presence or absence of SAIRGA (SEQ ID NO: 269) peptide at 1 μM final concentration in the medium. DNA was extracted using QIAGEN DNeasy blood and tissue kit (CAT #69504) and subjected to Illumina-based whole genome sequencing on NextSeq500. The relative abundance of lysogens in each sample was estimated using the number of reads mapped to the uninterrupted integration site versus reads mapped to the integration junction spanning the prophage DNA on one end and the bacterial DNA on the other end.

aimX = test: RNA-seq / differential expression analysis during phi3T infection; format: cell-based; details: medium supplemented by 1 μM peptide
Experimental: To determine the difference in gene expression with and without the peptide, bacteria were incubated for 1 hour in LB medium supplemented with 0.1 mM MnCl2 and 5 mM MgCl2 in the presence or absence of 1 μM synthesized SAIRGA (SEQ ID NO: 269) peptide. Following, the bacteria were infected with phi3T (MOI=0.1); and cell pellets were collected at 0, 5, 10 and 20 minutes post infection.
RNA extraction and RNA-seq was performed as described in Dar et al.^33. Briefly, pellets were lysed using the Fastprep homogenizer (MP Biomedicals, Santa Ana, Calif.) and RNA was extracted with the FastRNA PRO blue kit (MP Biomedicals, 116025050) according to manufacturer's instructions. […]
RNA-seq libraries were sequenced using the Illumina NextSeq500 platform. Sequenced reads were demultiplexed and adapters were trimmed using fastx_clipper with default parameters. Reads were mapped to the reference genomes (gene annotation and sequences were downloaded from Genbank: NC_000964 for Bacillus subtilis str. 168, AP012496 for Bacillus subtilis BEST7003) using NovoAlign (Novocraft) V3.02.02 with default parameters. […]
Reads per gene were calculated for each biological replicate at 20 minutes post infection with and without the synthetic peptide and normalized relative to the total mapped reads hitting the phage genome in each replicate. […]

[1] = tested on: Bacillus subtilis BEST7003 containing Construct #1; test: GFP reporter expression, Construct #1; format: cell-based; details: Construct #1, peptide 62.5 nM-1000 nM in LB
Experimental: (§1) Starter growths of wild type (WT) Bacillus subtilis BEST7003 strain and of Bacillus subtilis BEST7003 strains containing Construct #1 or Construct #2 were cultured in 3 ml Luria-Bertani (LB) broth until the growth curve indicated stationary phase. Following, the bacterial cells were diluted in a ratio of 1/100 in LB broth or LB broth supplemented with a SAIRGA (SEQ ID NO: 269) peptide at a concentration range of 62.5 nM-1000 nM. Optical density (O.D. at 600 nm) and GFP fluorescence levels (488 nm excitation/518 nm emission) were measured over time in a 96 wells plate using a TECAN Infinite 200 plate reader.

[2] = tested on: Bacillus subtilis BEST7003 containing Construct #2; test: GFP reporter expression, Construct #2; format: cell-based; details: Construct #2, peptide 62.5 nM-1000 nM in LB
Experimental: as §1

AimR = AimR (Bacillus phage phi3T, UniProt P0DOE3); test: Analytical gel filtration of purified AimR (oligomeric state); set-up: made in house; host or cells: E. coli BL21(DE3), pET28a; details: AimR:SAIRGA 1:2, AimR:GMPRGA 1:1 molar ratio
Sequence of AimR (P0DOE3 whole entry): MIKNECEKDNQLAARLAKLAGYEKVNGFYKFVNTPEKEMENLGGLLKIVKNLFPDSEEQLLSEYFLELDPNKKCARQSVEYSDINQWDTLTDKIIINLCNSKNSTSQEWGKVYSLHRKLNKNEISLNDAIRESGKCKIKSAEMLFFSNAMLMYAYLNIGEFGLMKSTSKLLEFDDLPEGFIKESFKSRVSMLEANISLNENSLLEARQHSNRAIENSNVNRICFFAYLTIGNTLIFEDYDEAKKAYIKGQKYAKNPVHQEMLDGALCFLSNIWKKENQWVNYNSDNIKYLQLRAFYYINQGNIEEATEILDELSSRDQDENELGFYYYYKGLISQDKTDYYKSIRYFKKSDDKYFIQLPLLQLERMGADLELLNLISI
Experimental: Following, AimR was expressed in E. coli BL21(DE3) cells with a C-terminal 6× His-tag. Expression was performed at 15° C. for about ˜18 hours using 200 μM IPTG (Isopropyl β-D-1-thiogalactopyranoside) as an inducer. The cells pellet was resuspended in lysis buffer [50 mM Tris pH 8, 0.3M NaCl, 20 mM Imidazole, 2 mM DTT, 0.2 mg/ml Lysozyme, 1 μg/ml DNAse, protease inhibitor cocktail (Calbiochem)], disrupted by a cell disrupter at 4° C. and clarified at 15,000 g for 30 minutes. The clarified lysate was loaded onto a HisTrap_FF_5 ml column (GE Healthcare) and washed with buffer containing 50 mM Tris pH 8, 0.3 M NaCl, 20 mM imidazole and 2 mM DTT. AimR was eluted from the column in one step with the same buffer containing 0.5 M imidazole. Fractions containing AimR were pooled and injected to a size exclusion column (HiLoad_16/60_Superdex_200_prepgrade,GE_Healthcare) equilibrated with 20 mM Tris pH 8, 0.3 M NaCl, 2 mM TCEP. Fractions containing pure AimR were pooled and flash frozen in aliquots using liquid nitrogen.
Pure AimR was injected to an analytical gel filtration column (Superdex_200_Increase_10/30 GL, GE Healthcare) equilibrated with buffer containing 20 mM Tris pH 8, 0.3 M NaCl, 2 mM TCEP. […]

In the case of CC[C@H](C)[C@H](NC(=O)[C@H](C)NC(=O)[C@@H](N)CO)C(=O)N[C@@H](CCCNC(=N)N)C(=O)NCC(=O)N[C@@H](C)C(=O)O [SAIRGA, Ser-Ala-Ile-Arg-Gly-Ala], the bacteria lysogenized (phi3T) is reported as 48% (±7.9%), the “reduction of aimX expression” value (aimX) is reported as “more than 20 fold” and the “GFP fluorescence in presence of peptide” value [1] is reported as “fluorescence gradually repressed in a manner proportional to the concentration of the peptide”. The “GFP expression in presence of peptide” value [2] was “differential expression of GFP dependent on the concentration of the peptide” and the “AimR oligomeric state (migration in gel filtration column)” value (AimR) was “strictly migrated as a monomer”.
